Measurements reported in paper PMC11604048, “Constrained TACC3 peptidomimetics for a non-canonical protein–protein interface elucidate allosteric communication in Aurora-A kinase” (Chemical Science, 2024).
Like-named read-outs stand apart in the source and are kept apart here. *1 amine or outer side, *2 acyl side, *3 side chain or, on linkers, in order; H or OH if unused. Where a SMILES comes first, the peptide text is derived from it. Bridges are numbered along the chain shown (N, C = ends). [ ]: non-standard residue; d: D form. Biphenyl(4,4'-CH2)2 = c1cc(-c2ccc(C[*:2])cc2)ccc1C[*:1]; Maleimide(3,4-diyl) = O=C1NC(=O)C([*:2])=C1[*:1]; Bpa = N[C@@H](Cc1ccc(C(=O)c2ccccc2)cc1)C(=O)O

Target: T1, Aurora-A122-403-C290A/C393A (Homo sapiens, UniProt O14965, C290A/C393A)
T1 construct: Human Aurora-A kinase domain 122-403 wild-type or C290A/ C393A mutant; His tag (pET30TEV vector) (N, cleaved yes); made in house; host or cells: E. coli RIL, co-expressed with lambda phosphatase (Aurora-A); tracer by solid phase synthesis
T1 sequence (O14965 122-403 C290A/C393A): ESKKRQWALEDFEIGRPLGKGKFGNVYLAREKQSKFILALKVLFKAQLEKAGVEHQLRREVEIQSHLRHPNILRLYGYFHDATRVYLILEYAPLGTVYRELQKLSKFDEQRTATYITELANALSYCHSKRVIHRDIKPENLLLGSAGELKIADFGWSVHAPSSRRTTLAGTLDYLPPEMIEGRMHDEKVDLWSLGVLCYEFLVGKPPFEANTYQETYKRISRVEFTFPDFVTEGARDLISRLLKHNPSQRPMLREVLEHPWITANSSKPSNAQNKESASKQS
Assay: Competition FA assay against FAM-Ahx-TACC3 522-536 tracer
Format: binding
Description: Once completed, the mixtures were transferred into SPPS fritted reaction vessels and washed with H2O (5X, 10 mL, 2 min), DMF (5X, 5mL, 2 min) and DCM (5X, 5 mL, 2 min). The clean resins were dried under vacuum and the cyclic peptides cleaved from the resin following the general procedures described in previous sections. After Et2O precipitation, the crude materials were freeze-dried and redissolved in H2O/MeCN/TFA 90/10/0.1% v/v for preparative HPLC purification.
All disulfide peptide variants (ox) were produced in situ from their free-thiol solid precursors. For this, 2 mg of the pure peptide materials were dissolved in aqueous DMSO 33% v/v to a 10 mM concentration and were left open to air oxidation at room temperature overnight. […]
the peptides were employed for FA competition assays and IC50 evaluation without further additional […]
Fluorescence anisotropy (FA) assays – General information.
All assays were performed using 384-well plates(Greiner Bio-one, UK). […]
produced as described previously.11 All samples were prepared in 25 mM Tris,150 mM NaCl, 5 mM MgCl2, pH= 7.5, unless otherwise stated, and tested in triplicate using an EnVisionTM 2103 MultiLabel plate reader (PerkinElmer; Waltham, MA, USA).The parameters were set as follows: Excitation wavelength = 480 nm (30 nm bandwidth) and emission wavelength = 535 nm (30 nm bandwidth). Measured data were processed and analysed as previously described.12 Specifically, the perpendicular intensity (P) and parallel intensity (S) were subtracted by the control values and used for calculations of intensity and anisotropy using the following Equations 1, 2, 3, 4, and 5:
I= (2PG) + S Eq. (SI − 5)
r = (S − PG) Eq. (SI − 6)
L = r − r௠௜௡ Eq. (SI − 7)
y = (k + x + [FL]) − ඥ(k + x + [FL]2 − 4 ∗ x ∗ [FL]) Eq. (SI − 8)
y = r + r௠௜௡ − r௠௔௫ Eq. (SI − 9)
Where I = total intensity; P = perpendicular intensity; S = parallel intensity; G = instrument factor; r = anisotropy; Lb = ligand bound fraction; λ = change in intensity between bound and unbound states which […]
FA direct binding assays. […]
starting from 700 μM, diluted over 24 points in a 1/2 regime using the FAM-Ahx-labeled peptides at a final fixed concentration of 50 nM per well.
FA competition assays were performed using the same plates and buffer as described above, with the initial […]
14 points in a 1/2 regime. […]
after 4 h of incubation to enable appropriate sample equilibration. To prevent sample oxidation, when sulfhydryl peptides were analyzed DTT was added to the buffer (5 mM). In competition mode, the average anisotropy and the average standard deviation of the values derived from equation SI-6 were calculated and fit to a sigmoidal logistic model (equation SI-9) using Origin 2021. When using peptides for which full […]
For consistency, all the data […]
indicating the corresponding SD. […]

[1] = as E1, Table S3 (mal): maleimide-constrained species, WT value is an individual replica control assay, mean ± SD, n = 3, read-out: IC50 (mal)
[2] = as E1, Table S3 (mal): maleimide-constrained species, WT value is an individual replica control assay, mean ± SD, n = 3, SD, read-out: IC50 (mal)
[3] = as E1, free-sulfhydryl (reduced) species, DTT 5 mM in buffer, WT control (+DTT), mean ± SD, n = 3, read-out: IC50 (red)
[4] = as E1, oxidised (disulfide) species made in situ from 10 mM stock in aqueous DMSO 33% v/v, air, overnight, WT control (+DMSO) given the same DMSO incubation, mean ± SD, n = 3, read-out: IC50 (ox)

SMILES: CC(=O)N[C@@H](CCC(=O)O)C(=O)N[C@@H](CCC(=O)O)C(=O)N[C@@H](CO)C(=O)N[C@@H](Cc1ccccc1)C(=O)N[C@H]1CSC2=C(SC[C@@H](C(=O)N[C@@H](CCC(=O)O)C(=O)N[C@H](C(=O)N[C@@H](CC(C)C)C(=O)NCC(=O)N[C@H](C(=O)NCC(=O)N[C@@H](C)C(N)=O)[C@@H](C)O)C(C)C)NC(=O)[C@@H]3CCCN3C(=O)[C@H](CC(=O)O)NC1=O)C(=O)NC2=O [TACC3 522-536 R526C/A529C (mal)] (Ac-EESFCDPCEVLGTGA-NH2; linker 5-8 via Maleimide(3,4-diyl) (inferred))
- IC50 [1]: ≥ 500 µM

SMILES: CC(=O)N[C@@H](CCC(=O)O)C(=O)N[C@@H](CCC(=O)O)C(=O)N[C@@H](CO)C(=O)N[C@H]1CSC2=C(SC[C@@H](C(=O)N[C@@H](C)C(=O)N[C@@H](CCC(=O)O)C(=O)N[C@H](C(=O)N[C@@H](CC(C)C)C(=O)NCC(=O)N[C@H](C(=O)NCC(=O)N[C@@H](C)C(N)=O)[C@@H](C)O)C(C)C)NC(=O)[C@H](CC(=O)O)NC(=O)[C@H](CCCNC(=N)N)NC1=O)C(=O)NC2=O [TACC3 522-536 F525C/P528C (mal)] (Ac-EESCRDCAEVLGTGA-NH2; linker 4-7 via Maleimide(3,4-diyl))
- IC50 [2]: 244 ± 28 µM

SMILES: CC(=O)N[C@@H](CCC(=O)O)C(=O)N[C@@H](CCC(=O)O)C(=O)N[C@@H](CO)C(=O)N[C@@H](Cc1ccccc1)C(=O)N[C@@H](CCCNC(=N)N)C(=O)N[C@@H](CC(=O)O)C(=O)N1CCC[C@H]1C(=O)N[C@@H](C)C(=O)N[C@@H](CCC(=O)O)C(=O)N[C@H](C(=O)N[C@@H](CS)C(=O)NCC(=O)N[C@H](C(=O)N[C@@H](CS)C(=O)N[C@@H](C)C(N)=O)[C@@H](C)O)C(C)C [TACC3 522-536 L532C/G535C (red)] (Ac-EESFRDPAEVCGTCA-NH2)
- IC50 [3]: ≥ 500 µM

SMILES: COc1ccc(C[C@H](NC(=O)[C@H](CO)NC(=O)[C@H](CCC(=O)O)NC(=O)[C@H](CCC(=O)O)NC(C)=O)C(=O)N[C@@H](CCCNC(=N)N)C(=O)N[C@@H](CC(=O)O)C(=O)N2CCC[C@H]2C(=O)N[C@@H](C)C(=O)N[C@@H](CCC(=O)O)C(=O)N[C@H](C(=O)N[C@@H](CC(C)C)C(=O)NCC(=O)N[C@H](C(=O)NCC(=O)N[C@@H](C)C(N)=O)[C@@H](C)O)C(C)C)cc1 [TACC3 522-536_F525Y(OMe)] (Ac-EESY(Me)RDPAEVLGTGA-NH2)
- IC50 (read-out: IC50): ≥ 300 µM

SMILES: CC(=O)N[C@@H](CCC(=O)O)C(=O)N[C@@H](CCC(=O)O)C(=O)N[C@@H](CO)C(=O)N[C@@H](Cc1ccccc1)C(=O)N[C@@H](CCCNC(=N)N)C(=O)N[C@@H](CC(=O)O)C(=O)N1CCC[C@H]1C(=O)N[C@@H](C)C(=O)N[C@H]1CSC2=C(SC[C@@H](C(=O)N[C@H](C(=O)NCC(=O)N[C@@H](C)C(N)=O)[C@@H](C)O)NC(=O)[C@H](CC(C)C)NC(=O)[C@H](C(C)C)NC1=O)C(=O)NC2=O [TACC3 522-536 E530C/G533C (mal)] (Ac-EESFRDPACVLCTGA-NH2; linker 9-12 via Maleimide(3,4-diyl))
- IC50 [2]: 223 ± 17 µM

SMILES: CC(=O)N[C@H]1CSSC[C@@H](C(=O)N[C@@H](C)C(=O)N[C@@H](CCC(=O)O)C(=O)N[C@H](C(=O)N[C@@H](CC(C)C)C(=O)NCC(=O)N[C@H](C(=O)NCC(=O)N[C@@H](C)C(N)=O)[C@@H](C)O)C(C)C)NC(=O)[C@H](CC(=O)O)NC(=O)[C@H](CCCNC(=N)N)NC(=O)[C@H](Cc2ccccc2)NC(=O)[C@H](CO)NC(=O)[C@H](CCC(=O)O)NC1=O [TACC3 522-536 E522C/P528C (ox)] (Ac-CESFRDCAEVLGTGA-NH2; disulfide 1-7)
- IC50 [4]: ≥ 500 µM

SMILES: CC(=O)N[C@@H](CCC(=O)O)C(=O)N[C@@H](CCC(=O)O)C(=O)N[C@@H](CO)C(=O)N[C@@H](Cc1ccc(C(F)(F)F)cc1)C(=O)N[C@@H](CCCNC(=N)N)C(=O)N[C@@H](CC(=O)O)C(=O)N1CCC[C@H]1C(=O)N[C@@H](C)C(=O)N[C@@H](CCC(=O)O)C(=O)N[C@H](C(=O)N[C@@H](CC(C)C)C(=O)NCC(=O)N[C@H](C(=O)NCC(=O)N[C@@H](C)C(N)=O)[C@@H](C)O)C(C)C [TACC3 522-536_(4-CF3)525F]
- IC50 (SD, read-out: IC50): 170 ± 17 µM

SMILES: CC(=O)N[C@@H](CCC(=O)O)C(=O)N[C@@H](CCC(=O)O)C(=O)N[C@@H](CO)C(=O)N[C@@H](Cc1ccc(C(=O)c2ccccc2)cc1)C(=O)N[C@@H](CCCNC(=N)N)C(=O)N[C@@H](CC(=O)O)C(=O)N1CCC[C@H]1C(=O)N[C@@H](C)C(=O)N[C@@H](CCC(=O)O)C(=O)N[C@H](C(=O)N[C@@H](CC(C)C)C(=O)NCC(=O)N[C@H](C(=O)NCC(=O)N[C@@H](C)C(N)=O)[C@@H](C)O)C(C)C [TACC3 522-536_(pBnz) -525F] (Ac-EES[Bpa]RDPAEVLGTGA-NH2)
- IC50: ≥ 500 µM

SMILES: CC(=O)N[C@@H](CC(C)C)C(=O)N[C@@H](CCC(=O)O)C(=O)N[C@@H](CC(C)C)C(=O)N[C@@H](CCCCN)C(=O)N[C@@H](CCC(=O)O)C(=O)N[C@@H](CCC(=O)O)C(=O)N[C@H]1CSCc2ccc(cc2)-c2ccc(cc2)CSC[C@@H](C(=O)N[C@H](C(=O)N[C@@H](CC(C)C)C(N)=O)C(C)C)NC(=O)[C@H](C)NC(=O)[C@@H]2CCCN2C(=O)[C@H](CC(=O)O)NC(=O)[C@H](CCCNC(=N)N)NC(=O)[C@H](Cc2ccccc2)NC1=O [TACC3 518-532 S524C/E530C (Bph)] (Ac-LELKEECFRDPACVL-NH2; linker 7-13 via Biphenyl(4,4'-CH2)2)
- fold enhanced inhibitory potency (IC50) compared to the WT peptide (competition FA IC50 ratio vs WT): up to 4 fold

SMILES: CC(=O)N[C@@H](CCC(=O)O)C(=O)N[C@@H](CCC(=O)O)C(=O)N[C@@H](CO)C(=O)N[C@@H](Cc1ccccc1)C(=O)N[C@@H](CCCNC(=N)N)C(=O)N[C@@H](CC(=O)O)C(=O)N1CCC[C@H]1C(=O)N[C@@H](C)C(=O)N[C@@H](CS)C(=O)N[C@H](C(=O)N[C@@H](CC(C)C)C(=O)N[C@@H](CS)C(=O)N[C@H](C(=O)NCC(=O)N[C@@H](C)C(N)=O)[C@@H](C)O)C(C)C [TACC3 522-536 E530C/G533C (red)] (Ac-EESFRDPACVLCTGA-NH2)
- IC50 [3]: ≥ 500 µM

SMILES: CC(=O)N[C@@H](CCC(=O)O)C(=O)N[C@@H](CCC(=O)O)C(=O)N[C@@H](CO)C(=O)N[C@@H](Cc1ccccc1)C(=O)N[C@@H](CCCNC(=N)N)C(=O)N[C@@H](CC(=O)O)C(=O)N1CCC[C@H]1C(=O)N[C@H]1CSSC[C@@H](C(=O)NCC(=O)N[C@H](C(=O)NCC(=O)N[C@@H](C)C(N)=O)[C@@H](C)O)NC(=O)[C@H](C(C)C)NC(=O)[C@H](CCC(=O)O)NC1=O [TACC3 522-536 A529C/L532C (ox)] (Ac-EESFRDPCEVCGTGA-NH2; disulfide 8-11)
- IC50 [4]: ≥ 500 µM

SMILES: CC(=O)N[C@@H](CCC(=O)O)C(=O)N[C@@H](CCC(=O)O)C(=O)N[C@H]1CSC2=C(SC[C@@H](C(=O)N3CCC[C@H]3C(=O)N[C@@H](C)C(=O)N[C@@H](CCC(=O)O)C(=O)N[C@H](C(=O)N[C@@H](CC(C)C)C(=O)NCC(=O)N[C@H](C(=O)NCC(=O)N[C@@H](C)C(N)=O)[C@@H](C)O)C(C)C)NC(=O)[C@H](CCCNC(=N)N)NC(=O)[C@H](Cc3ccccc3)NC1=O)C(=O)NC2=O [TACC3 522-536 S524C/D527C (mal)] (Ac-EECFRCPAEVLGTGA-NH2; linker 3-6 via Maleimide(3,4-diyl) (inferred))
- IC50 [1]: ≥ 500 µM
